In PubChem BioAssay AID1963980 (Molecular Pharmacology Branch, DTP, NCI, 2024):

Tested on: 475296-252-R-J1-PDC spheroid viability
Assay: Anticancer human tumor 475296-252-R-J1-PDC patient-derived rectal carcinoma cell line growth inhibition [PI3K]
Conditions: spheroids with HUVEC and MSC; for IC50: curve of first compound; for viability, T/C: stronger effect = lower value
In short: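 Three cell types, namely tumor cells, endothelial cells and mesenchymal stem cells, formed each spheroid. Combinations with four PI3K inhibitors were screened at clinically achievable concentrations decreasing by half-log, and spheroid viability was recorded.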

[1] = second compound 0.00316 µM, first compound 0.0316 µM
[2] = second compound 0.00316 µM, first compound 0.1 µM
[3] = second compound 0.00316 µM, first compound 0.316 µM
[4] = second compound 0.00316 µM, first compound 1 µM
[5] = second compound 0.00316 µM, first compound 3.16 µM
[6] = second compound 0.00316 µM, first compound 10 µM
[7] = second compound 0.01 µM, first compound 0.0316 µM
[8] = second compound 0.01 µM, first compound 0.1 µM
[9] = second compound 0.01 µM, first compound 0.316 µM
[10] = second compound 0.01 µM, first compound 1 µM
[11] = second compound 0.01 µM, first compound 3.16 µM
[12] = second compound 0.01 µM, first compound 10 µM
[13] = second compound 0.0316 µM, first compound 0.0316 µM
[14] = second compound 0.0316 µM, first compound 0.1 µM
[15] = second compound 0.0316 µM, first compound 0.316 µM
[16] = second compound 0.0316 µM, first compound 1 µM
[17] = second compound 0.0316 µM, first compound 3.16 µM
[18] = second compound 0.0316 µM, first compound 10 µM
[19] = second compound 0.1 µM, first compound 0.0316 µM
[20] = second compound 0.1 µM, first compound 0.1 µM
[21] = second compound 0.1 µM, first compound 0.316 µM
[22] = second compound 0.1 µM, first compound 1 µM
[23] = second compound 0.1 µM, first compound 3.16 µM
[24] = second compound 0.1 µM, first compound 10 µM
[25] = second compound 0.316 µM, first compound 0.0316 µM
[26] = second compound 0.316 µM, first compound 0.1 µM
[27] = second compound 0.316 µM, first compound 0.316 µM
[28] = second compound 0.316 µM, first compound 1 µM
[29] = second compound 0.316 µM, first compound 3.16 µM
[30] = second compound 0.316 µM, first compound 10 µM
[31] = second compound 1 µM, first compound 0.0316 µM
[32] = second compound 1 µM, first compound 0.1 µM
[33] = second compound 1 µM, first compound 0.316 µM
[34] = second compound 1 µM, first compound 1 µM
[35] = second compound 1 µM, first compound 3.16 µM
[36] = second compound 1 µM, first compound 10 µM
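Further: spheroids exposed to agents for seven days before readout.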

C#Cc1c(F)ccc2cc(O)cc(-c3ncc4c(N5CC6CCC(C5)N6)nc(OCC56CCCN5CC(F)C6)nc4c3F)c12 (stereo not given) + CC(Nc1ccc2c(c1)OCCn1cc(N3C(=O)OCC3C(F)F)nc1-2)C(N)=O
IC50 (second compound 0.00316 µM): > 10 µM | IC50 (second compound 0.01 µM): > 10 µM | IC50 (second compound 0.0316 µM): > 10 µM | IC50 (second compound 0.1 µM): 9.51 µM | IC50 (second compound 0.316 µM): 1.75 µM | IC50 (second compound 1 µM): 0.828 µM | viability, T/C [1]: 104% | viability, T/C [2]: 78.2% | viability, T/C [3]: 87.1% | viability, T/C [4]: 74.6% | viability, T/C [5]: 67.5% | viability, T/C [6]: 67% | viability, T/C [7]: 98.6% | viability, T/C [8]: 83% | viability, T/C [9]: 85.3% | viability, T/C [10]: 73.1% | viability, T/C [11]: 75.1% | viability, T/C [12]: 59.1% | viability, T/C [13]: 94.2% | viability, T/C [14]: 87.2% | viability, T/C [15]: 77.6% | viability, T/C [16]: 73.8% | viability, T/C [17]: 73.3% | viability, T/C [18]: 59.2% | viability, T/C [19]: 89% | viability, T/C [20]: 94.6% | viability, T/C [21]: 74.3% | viability, T/C [22]: 72.1% | viability, T/C [23]: 61.1% | viability, T/C [24]: 49% | viability, T/C [25]: 78.2% | viability, T/C [26]: 87.7% | viability, T/C [27]: 86.6% | viability, T/C [28]: 61.3% | viability, T/C [29]: 36.5% | viability, T/C [30]: 18.1% | viability, T/C [31]: 92.1% | viability, T/C [32]: 75.1% | viability, T/C [33]: 67.4% | viability, T/C [34]: 52.8% | viability, T/C [35]: 16.9% | viability, T/C [36]: 9.3%

C=CC(=O)N1CCN(c2nc(=O)n(-c3c(C)ccnc3C(C)C)c3nc(-c4c(O)cccc4F)c(F)cc23)C(C)C1 (stereo not given) + CC(Nc1ccc2c(c1)OCCn1cc(N3C(=O)OCC3C(F)F)nc1-2)C(N)=O
IC50 (second compound 0.00316 µM): > 10 µM | IC50 (second compound 0.01 µM): > 10 µM | IC50 (second compound 0.0316 µM): > 10 µM | IC50 (second compound 0.1 µM): > 10 µM | IC50 (second compound 0.316 µM): > 10 µM | IC50 (second compound 1 µM): > 10 µM | viability, T/C [1]: 83.8% | viability, T/C [2]: 89.9% | viability, T/C [3]: 89.4% | viability, T/C [4]: 92.5% | viability, T/C [5]: 102% | viability, T/C [6]: 110% | viability, T/C [7]: 90.2% | viability, T/C [8]: 84.9% | viability, T/C [9]: 101% | viability, T/C [10]: 102% | viability, T/C [11]: 102% | viability, T/C [12]: 97.8% | viability, T/C [13]: 88.3% | viability, T/C [14]: 97.2% | viability, T/C [15]: 91.2% | viability, T/C [16]: 90.2% | viability, T/C [17]: 99% | viability, T/C [18]: 96.3% | viability, T/C [19]: 83.7% | viability, T/C [20]: 92.2% | viability, T/C [21]: 96.5% | viability, T/C [22]: 103% | viability, T/C [23]: 94% | viability, T/C [24]: 98.6% | viability, T/C [25]: 77.5% | viability, T/C [26]: 90.8% | viability, T/C [27]: 88% | viability, T/C [28]: 86.9% | viability, T/C [29]: 83.4% | viability, T/C [30]: 86.2% | viability, T/C [31]: 82.7% | viability, T/C [32]: 79% | viability, T/C [33]: 87.5% | viability, T/C [34]: 83.5% | viability, T/C [35]: 86.6% | viability, T/C [36]: 81.3%

CC(Cn1ccc(-c2ccc(C#N)c(Cl)c2)n1)NC(=O)c1cc(C(C)O)[nH]n1 (stereo not given) + CC(Nc1ccc2c(c1)OCCn1cc(N3C(=O)OCC3C(F)F)nc1-2)C(N)=O
IC50 (second compound 0.00316 µM): > 10 µM | IC50 (second compound 0.01 µM): > 10 µM | IC50 (second compound 0.0316 µM): > 10 µM | IC50 (second compound 0.1 µM): > 10 µM | IC50 (second compound 0.316 µM): > 10 µM | IC50 (second compound 1 µM): > 10 µM | viability, T/C [1]: 110% | viability, T/C [2]: 96.5% | viability, T/C [3]: 93.9% | viability, T/C [4]: 83.8% | viability, T/C [5]: 106% | viability, T/C [6]: 95.2% | viability, T/C [7]: 101% | viability, T/C [8]: 94% | viability, T/C [9]: 98.8% | viability, T/C [10]: 88.4% | viability, T/C [11]: 98.4% | viability, T/C [12]: 103% | viability, T/C [13]: 87.1% | viability, T/C [14]: 102% | viability, T/C [15]: 91.3% | viability, T/C [16]: 90.9% | viability, T/C [17]: 97.5% | viability, T/C [18]: 103% | viability, T/C [19]: 84.6% | viability, T/C [20]: 93.4% | viability, T/C [21]: 101% | viability, T/C [22]: 90.9% | viability, T/C [23]: 95.3% | viability, T/C [24]: 98.4% | viability, T/C [25]: 84% | viability, T/C [26]: 107% | viability, T/C [27]: 91% | viability, T/C [28]: 89.7% | viability, T/C [29]: 90.8% | viability, T/C [30]: 89.5% | viability, T/C [31]: 92% | viability, T/C [32]: 83.1% | viability, T/C [33]: 87.9% | viability, T/C [34]: 93.5% | viability, T/C [35]: 80.6% | viability, T/C [36]: 83.4%

CC1(C)CCC(Nc2ncc(C(F)(F)F)c(-c3c[nH]c4c(P(C)(C)=O)c(C#N)ccc34)n2)CN1 (stereo not given) + CC(Nc1ccc2c(c1)OCCn1cc(N3C(=O)OCC3C(F)F)nc1-2)C(N)=O
IC50 (second compound 0.00316 µM): > 10 µM | IC50 (second compound 0.01 µM): > 10 µM | IC50 (second compound 0.0316 µM): > 10 µM | IC50 (second compound 0.1 µM): > 10 µM | IC50 (second compound 0.316 µM): > 10 µM | IC50 (second compound 1 µM): > 10 µM | viability, T/C [1]: 96.4% | viability, T/C [2]: 86.1% | viability, T/C [3]: 98.4% | viability, T/C [4]: 116% | viability, T/C [5]: 174% | viability, T/C [6]: 73.9% | viability, T/C [7]: 94.5% | viability, T/C [8]: 81.3% | viability, T/C [9]: 116% | viability, T/C [10]: 136% | viability, T/C [11]: 203% | viability, T/C [12]: 82.8% | viability, T/C [13]: 91.2% | viability, T/C [14]: 99.7% | viability, T/C [15]: 96.9% | viability, T/C [16]: 136% | viability, T/C [17]: 187% | viability, T/C [18]: 77.1% | viability, T/C [19]: 96.6% | viability, T/C [20]: 103% | viability, T/C [21]: 106% | viability, T/C [22]: 136% | viability, T/C [23]: 170% | viability, T/C [24]: 72.9% | viability, T/C [25]: 82.9% | viability, T/C [26]: 92.5% | viability, T/C [27]: 104% | viability, T/C [28]: 111% | viability, T/C [29]: 147% | viability, T/C [30]: 66.5% | viability, T/C [31]: 94.7% | viability, T/C [32]: 88.4% | viability, T/C [33]: 96.4% | viability, T/C [34]: 105% | viability, T/C [35]: 113% | viability, T/C [36]: 63.1%

Cn1nccc1Nc1nccc(-c2ccn(C(CO)c3ccc(Cl)c(F)c3)c(=O)c2)n1 (stereo not given) + CC(Nc1ccc2c(c1)OCCn1cc(N3C(=O)OCC3C(F)F)nc1-2)C(N)=O
IC50 (second compound 0.00316 µM): > 10 µM | IC50 (second compound 0.01 µM): > 10 µM | IC50 (second compound 0.0316 µM): > 10 µM | IC50 (second compound 0.1 µM): > 10 µM | IC50 (second compound 0.316 µM): 6.42 µM | IC50 (second compound 1 µM): 3.52 µM | viability, T/C [1]: 92.9% | viability, T/C [2]: 92.8% | viability, T/C [3]: 99.3% | viability, T/C [4]: 91.6% | viability, T/C [5]: 90.3% | viability, T/C [6]: 80.9% | viability, T/C [7]: 96.8% | viability, T/C [8]: 97.9% | viability, T/C [9]: 94.4% | viability, T/C [10]: 89.1% | viability, T/C [11]: 92.1% | viability, T/C [12]: 74% | viability, T/C [13]: 101% | viability, T/C [14]: 105% | viability, T/C [15]: 95.7% | viability, T/C [16]: 85.8% | viability, T/C [17]: 82.9% | viability, T/C [18]: 74.7% | viability, T/C [19]: 87.6% | viability, T/C [20]: 94.7% | viability, T/C [21]: 76.8% | viability, T/C [22]: 83.7% | viability, T/C [23]: 73.3% | viability, T/C [24]: 58.1% | viability, T/C [25]: 81.1% | viability, T/C [26]: 87.4% | viability, T/C [27]: 83.1% | viability, T/C [28]: 77.2% | viability, T/C [29]: 61.1% | viability, T/C [30]: 43.1% | viability, T/C [31]: 84.1% | viability, T/C [32]: 81% | viability, T/C [33]: 87.1% | viability, T/C [34]: 67.9% | viability, T/C [35]: 53.3% | viability, T/C [36]: 31.4%
